Assay results from patent US20200037609A1, “HERBICIDAL COMPOSITIONS AND METHODS OF USE THEREOF” (The Regents of the University of California, priority 2017, published 2020).
Read-outs that look alike come from different tables or passages of the source.

Columns and labels:
[1] = test system: S. cerevisiae ΔILV3 expressing AstD; test: Growth inhibition of S. cerevisiae ΔILV3 in ILV dropout media; format: cell-based; settings: Saccharomyces cerevisiae, read-out: IC50 of growth inhibition, yeast expressing AstD
Protocol: Growth inhibition assay of S. cerevisiae on plates or in the tubes. S. cerevisiae was grown in isoleucine, leucine and valine (ILV) dropout media (20 g/L glucose, 0.67 g/L Difco™ Yeast Nitrogen Base w/o amino acids, 18 mg/L adenine, arginine 76 mg/L, asparagine 76 mg/L, aspartic acid 76 mg/L, glutamic acid 76 mg/L, histidine 76 mg/L, lysine 76 mg/L, methionine 76 mg/L, phenylalanine 76 mg/L, serine 76 mg/L, threonine 76 mg/L, tryptophan 76 mg/L, tyrosine 76 mg/L) to test growth inhibition of AA on S. cerevisiae. S. cerevisiae was incubated at 28° C. until OD600 of the control strain without AA treatment reached about 0.8. The ratio of yeast OD600 in media with AA treatment to yeast OD600 in media without AA was calculated as the percentage of growth inhibition. The inhibition curve was plotted as percentage of inhibition versus AA concentrations. […] The growth curves of TY05, TY06 and TY07 were also plotted (FIG. 29A-29D). The OD600 was recorded for every 20 minutes over a total of 50 h. The inhibition percentage can be calculated by following equation: […]

[2] = test system: soil-grown Arabidopsis thaliana Col-0 ecotype plants; test: Herbicidal spray experiments with 1 mM aspterric acid in solvent formulations; format: in vivo
Protocol: Aspterric acid was dissolved in the following solvent formulations at a final concentration of 1 mM: (1) 0.5% silwet L-77 and 1% DMSO (floral dip formulation), (2) 2% EtOH, 1% corn oil, and 0.1% tween 80, and (3) 2% EtOH and 0.05% Finale (Finale formulation, contains a final concentration of […]).
For spray treatments with aspterric acid in the various formulations described above, Arabidopsis thaliana Col-0 ecotype plants were grown in soil under long day conditions (16 hours of light followed by 8 hours of dark per day) at 23° C. using cool-white fluorescence bulbs as the light source. Ten-day old seedlings were sprayed with 1 mM aspterric acid dissolved in formulation (1), (2), or (3) as described above. Spray application with the various respective formulations was repeated every 2 days.

[3] = test system: pollen development in Arabidopsis thaliana; settings: literature, cited from earlier work
[4] = target: T1, Arabidopsis thaliana housekeeping DHAD (pDHAD) (Arabidopsis thaliana, UniProt Q9LIR4); test: DHAD enzymatic inhibition assay (phenylhydrazine derivatization, LC-MS); format: biochemical
T1 construct: […]; 6xHis (N); made in house; host or cells: E. coli BL21 (DE3)
T1 sequence (Q9LIR4 35-608): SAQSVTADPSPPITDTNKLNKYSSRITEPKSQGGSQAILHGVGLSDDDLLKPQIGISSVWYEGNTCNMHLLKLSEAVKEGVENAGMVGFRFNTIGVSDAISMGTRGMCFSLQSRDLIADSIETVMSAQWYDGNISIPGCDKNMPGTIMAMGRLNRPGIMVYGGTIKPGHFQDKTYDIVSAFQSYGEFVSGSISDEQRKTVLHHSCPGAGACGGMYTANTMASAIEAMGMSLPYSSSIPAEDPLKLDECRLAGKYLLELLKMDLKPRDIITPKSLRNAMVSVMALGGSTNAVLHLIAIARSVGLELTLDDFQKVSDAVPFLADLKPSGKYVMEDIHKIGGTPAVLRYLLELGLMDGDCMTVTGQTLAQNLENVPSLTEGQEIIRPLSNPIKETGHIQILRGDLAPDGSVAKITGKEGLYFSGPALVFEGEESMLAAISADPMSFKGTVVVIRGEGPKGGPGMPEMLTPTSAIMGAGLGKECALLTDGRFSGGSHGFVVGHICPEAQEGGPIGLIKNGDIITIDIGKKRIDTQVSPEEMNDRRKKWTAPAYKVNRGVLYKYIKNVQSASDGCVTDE
Protocol: Enzymatic activity reactions were carried out in […] volumes containing 50 mM storage buffer, 10 mM (±)-Sodium 2,3-dihydroxyisovalerate hydrate (DHAD substrate) and 1 μM purified DHAD enzyme. After incubation for 30 minutes at 30° C., the reaction was stopped by adding an equal volume of ethanol. 1/10 volumes of 100 mM phenylhydrozine was added at room temperature for 30 minutes to derivatize the DHAD-synthesized molecule (3-methyl-2-oxo-butanoic acid) into a detectable derivatization product (DDP). See FIG. 5A for an overview of reactions.
Inhibition assays were carried out according to the reactions described above. First, phenylhydrozine was added to 3-methyl-2-oxo-butanoic acid to validate the derivatization reaction. Next, DHAD substrate was incubated with 1 μM purified DHAD enzyme from A. thaliana (with or without DMSO) then derivatized with phenylhydrozine to validate the activity of the purified DHAD enzyme. Finally, DHAD substrate was incubated with 1 μM purified DHAD enzyme from A. thaliana and 1 mM aspterric acid in DMSO then derivatized with phenylhydrozine to determine if DHAD was inhibited by aspterric acid. 20 μL of the reaction mixture was subject to LC-MS analysis, and DDP was detected by UV absorption at 350 nm. The area of the peak that corresponded to DDP was used to quantify the amount of (±)-Sodium 2,3-dihydroxyisovalerate hydrate that was converted into DDP.
Inhibition assays were carried out according to the reactions described above by incubating purified DHAD enzymes (either the housekeeping DHAD from Aspergillus terreus, the housekeeping DHAD from Arabidopsis thaliana, or AstD from Aspergillus terreus) with aspterric acid at various concentrations. For AstD, up to 8 mM of aspterric acid was tested. […] The half maximal inhibitory concentration (IC50) and the effect of aspterric acid on the enzyme kinetics of each purified DHAD enzyme was calculated based on the initial reaction rates observed in the inhibition assays.
Biochemical assay of DHADs. […] The area of the HPLC peak with UV absorption at 350 nm was used to quantify the amount of 6. […]

## CC(C)=C1CC[C@]23CO[C@H](C2)[C@@](O)(C(=O)O)CC[C@@H]13 [aspterric acid]
[1]
  IC50: ~200 µM
[2]; 1 mM in 0.5% silwet L-77 and 1% DMSO, every 2 days, 18 days after first spray
  growth after spray, formulation (1): showed growth inhibition
[2]; 1 mM in 2% EtOH and 0.05% Finale, glufosinate-resistant plants, 18 days after first spray
  growth after spray, formulation (3): significant growth inhibition
[2]; 1 mM in 2% EtOH, 1% corn oil, 0.1% tween 80, every 2 days, 17 days after first spray
  growth after spray, formulation (2): showed growth inhibition
[3]
  inhibition of pollen development in A. thaliana (previously reported): inhibit pollen development
[3]; listed as AA
  inhibition of pollen development in A. thaliana (previously reported): inhibitory activity towards pollen development
[4]; 10 μM AA
  pDHAD activity in presence of AA: abolished pDHAD activity
[4]; 1 mM aspterric acid, 1 μM enzyme
  DHAD enzymatic activity in presence of aspterric acid: completely inhibited
[4]; kinetic analyses
  mode of inhibition of pDHAD: competitive inhibitor
